Data as given in patent US20250304594A1, “METHYL (R)-2-(FLUOROMETHYL)-5-OXO-4-PHENYL-4,5,6,7-TETRAHYDRO-1H-CYCLOPENTA[B]PYRIDINE-3-CARBOXYLATE AND METHYL (R)-2-(FLUOROMETHYL)-5-OXO-4-PHENYL-1,4,5,7-TETRAHYDROFURO[3,4-B]PYRIDINE-3-CARBOXYLATE AS Cav1,2 ACTIVATORS” (Novartis AG, priority 2020, published 2025).

Legend:
[1] = Hygroscopicity / water sorption of crystalline hydrates versus relative humidity; type: physicochemical
human CaV1.2 [2] = target: T1, human CaV1.2 (Homo sapiens, UniProt Q13936); experiment: Sophion QPatch dose-response assay, whole-cell voltage clamp of barium currents in CaV1.2-HEK293(AUX) cells; type: cell-based; settings: Table 10 comparative examples; maximal fold change of peak inward current
T1 construct: expressed in transfected cells; host or cells: Flp-In 293 T-Rex (HEK293), monoclonal CaV1.2-HEK293(AUX) clone 2-19B; doxycycline-induced auxiliary subunits
T1 sequence (Q13936 1-2138 isoform Q13936-23): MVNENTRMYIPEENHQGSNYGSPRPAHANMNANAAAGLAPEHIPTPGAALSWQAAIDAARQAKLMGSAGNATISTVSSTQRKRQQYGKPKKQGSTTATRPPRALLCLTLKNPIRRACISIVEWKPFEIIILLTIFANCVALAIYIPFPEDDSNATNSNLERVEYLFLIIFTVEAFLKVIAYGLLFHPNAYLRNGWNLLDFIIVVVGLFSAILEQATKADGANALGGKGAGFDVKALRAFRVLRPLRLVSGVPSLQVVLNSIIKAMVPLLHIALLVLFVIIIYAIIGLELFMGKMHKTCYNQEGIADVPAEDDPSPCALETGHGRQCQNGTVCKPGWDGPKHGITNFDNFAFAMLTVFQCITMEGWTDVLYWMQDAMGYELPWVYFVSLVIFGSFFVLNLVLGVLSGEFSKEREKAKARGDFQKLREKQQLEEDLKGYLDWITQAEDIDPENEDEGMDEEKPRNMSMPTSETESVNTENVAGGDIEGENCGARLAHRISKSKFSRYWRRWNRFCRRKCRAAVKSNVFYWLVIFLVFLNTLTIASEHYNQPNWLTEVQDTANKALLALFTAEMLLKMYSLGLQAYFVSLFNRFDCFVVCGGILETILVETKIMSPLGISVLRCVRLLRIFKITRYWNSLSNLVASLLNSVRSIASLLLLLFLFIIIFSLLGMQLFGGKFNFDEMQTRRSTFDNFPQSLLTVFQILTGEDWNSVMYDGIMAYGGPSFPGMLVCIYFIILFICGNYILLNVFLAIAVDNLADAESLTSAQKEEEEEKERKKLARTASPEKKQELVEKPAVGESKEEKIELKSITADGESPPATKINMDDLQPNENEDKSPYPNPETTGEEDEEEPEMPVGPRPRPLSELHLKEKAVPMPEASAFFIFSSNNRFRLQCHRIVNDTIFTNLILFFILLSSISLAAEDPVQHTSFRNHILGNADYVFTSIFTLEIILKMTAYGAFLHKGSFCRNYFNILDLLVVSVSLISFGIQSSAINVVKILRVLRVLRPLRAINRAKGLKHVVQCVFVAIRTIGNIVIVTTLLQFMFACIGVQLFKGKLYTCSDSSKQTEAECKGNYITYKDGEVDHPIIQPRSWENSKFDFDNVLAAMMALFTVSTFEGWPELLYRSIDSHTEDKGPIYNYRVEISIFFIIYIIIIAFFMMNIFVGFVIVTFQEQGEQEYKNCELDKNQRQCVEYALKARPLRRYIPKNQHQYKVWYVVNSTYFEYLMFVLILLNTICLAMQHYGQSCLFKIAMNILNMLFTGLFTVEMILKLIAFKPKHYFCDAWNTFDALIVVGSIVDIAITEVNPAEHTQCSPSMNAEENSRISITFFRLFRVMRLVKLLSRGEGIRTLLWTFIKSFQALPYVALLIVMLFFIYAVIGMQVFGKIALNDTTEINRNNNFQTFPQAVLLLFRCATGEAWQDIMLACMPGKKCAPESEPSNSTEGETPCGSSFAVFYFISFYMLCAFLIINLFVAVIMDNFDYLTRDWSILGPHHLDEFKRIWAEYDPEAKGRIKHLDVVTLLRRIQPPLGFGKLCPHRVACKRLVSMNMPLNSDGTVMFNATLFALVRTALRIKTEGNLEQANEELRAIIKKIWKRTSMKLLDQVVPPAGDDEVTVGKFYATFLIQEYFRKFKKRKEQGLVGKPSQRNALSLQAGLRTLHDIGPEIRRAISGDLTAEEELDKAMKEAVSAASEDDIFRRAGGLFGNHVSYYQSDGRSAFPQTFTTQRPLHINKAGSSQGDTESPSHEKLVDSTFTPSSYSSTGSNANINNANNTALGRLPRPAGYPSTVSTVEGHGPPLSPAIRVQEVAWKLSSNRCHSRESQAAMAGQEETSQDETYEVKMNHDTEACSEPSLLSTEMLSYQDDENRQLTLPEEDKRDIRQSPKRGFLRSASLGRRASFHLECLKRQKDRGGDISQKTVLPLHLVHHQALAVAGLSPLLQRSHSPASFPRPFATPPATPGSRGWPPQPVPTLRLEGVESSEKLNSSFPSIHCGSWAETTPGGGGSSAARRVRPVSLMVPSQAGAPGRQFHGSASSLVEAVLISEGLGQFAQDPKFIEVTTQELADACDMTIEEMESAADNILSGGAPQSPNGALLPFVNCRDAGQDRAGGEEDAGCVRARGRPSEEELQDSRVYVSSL
T1 sequence (Q9NY47 19-1001 partner limits assumed): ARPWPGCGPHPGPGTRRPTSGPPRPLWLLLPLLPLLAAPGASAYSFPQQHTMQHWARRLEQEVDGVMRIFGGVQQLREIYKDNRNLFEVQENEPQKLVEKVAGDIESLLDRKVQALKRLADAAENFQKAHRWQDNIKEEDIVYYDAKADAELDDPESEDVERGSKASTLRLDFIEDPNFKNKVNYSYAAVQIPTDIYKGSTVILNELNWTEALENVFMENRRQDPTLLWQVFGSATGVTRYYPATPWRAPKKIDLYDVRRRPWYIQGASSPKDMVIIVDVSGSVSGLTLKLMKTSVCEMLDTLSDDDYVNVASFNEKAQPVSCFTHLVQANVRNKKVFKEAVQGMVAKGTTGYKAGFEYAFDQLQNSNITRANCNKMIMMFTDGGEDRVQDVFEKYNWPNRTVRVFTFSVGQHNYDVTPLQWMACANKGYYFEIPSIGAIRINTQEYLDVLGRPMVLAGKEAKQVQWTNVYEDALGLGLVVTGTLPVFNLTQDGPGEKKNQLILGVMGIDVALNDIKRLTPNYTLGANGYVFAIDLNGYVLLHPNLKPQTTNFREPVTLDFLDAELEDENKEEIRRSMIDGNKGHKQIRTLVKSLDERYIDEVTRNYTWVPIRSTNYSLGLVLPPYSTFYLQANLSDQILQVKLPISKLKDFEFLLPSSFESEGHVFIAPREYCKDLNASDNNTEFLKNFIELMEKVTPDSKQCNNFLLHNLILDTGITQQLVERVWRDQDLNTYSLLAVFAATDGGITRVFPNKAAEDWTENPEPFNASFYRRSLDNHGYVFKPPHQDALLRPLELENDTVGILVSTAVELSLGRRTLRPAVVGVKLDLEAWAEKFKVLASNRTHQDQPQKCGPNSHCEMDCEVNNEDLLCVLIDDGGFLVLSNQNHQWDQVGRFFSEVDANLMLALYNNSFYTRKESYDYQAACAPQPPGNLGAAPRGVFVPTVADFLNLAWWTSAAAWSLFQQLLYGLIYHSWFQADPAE
T1 sequence (Q9NY47 1002-1150 partner limits assumed): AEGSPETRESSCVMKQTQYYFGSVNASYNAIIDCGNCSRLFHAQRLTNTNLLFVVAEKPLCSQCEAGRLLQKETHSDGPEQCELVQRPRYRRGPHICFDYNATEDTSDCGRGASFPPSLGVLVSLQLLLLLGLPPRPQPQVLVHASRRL
T1 sequence (Q08289 whole entry partner): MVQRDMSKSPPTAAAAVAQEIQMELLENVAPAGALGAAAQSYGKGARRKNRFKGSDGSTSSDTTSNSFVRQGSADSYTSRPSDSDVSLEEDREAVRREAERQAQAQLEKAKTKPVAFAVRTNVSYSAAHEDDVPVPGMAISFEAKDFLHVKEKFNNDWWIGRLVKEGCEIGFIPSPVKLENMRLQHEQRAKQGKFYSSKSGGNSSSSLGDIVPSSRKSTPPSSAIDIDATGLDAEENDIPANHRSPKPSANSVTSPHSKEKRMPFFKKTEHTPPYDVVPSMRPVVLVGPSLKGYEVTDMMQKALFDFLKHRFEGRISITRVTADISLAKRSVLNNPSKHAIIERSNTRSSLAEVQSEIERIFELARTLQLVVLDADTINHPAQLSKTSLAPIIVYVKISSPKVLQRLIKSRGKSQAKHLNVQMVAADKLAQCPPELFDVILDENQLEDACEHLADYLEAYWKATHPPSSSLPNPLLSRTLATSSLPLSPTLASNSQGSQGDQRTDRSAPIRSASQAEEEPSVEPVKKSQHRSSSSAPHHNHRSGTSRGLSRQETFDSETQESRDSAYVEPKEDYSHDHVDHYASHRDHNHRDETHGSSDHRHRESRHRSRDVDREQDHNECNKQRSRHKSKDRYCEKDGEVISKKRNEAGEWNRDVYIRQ
Source text: (§1) The monoclonal CaV1.2-HEK293(AUX) cell line constitutively expresses human CaV1.2 alpha1C (α1C) subunit (CACNA1C) and has doxycycline-inducible expression of the alpha2delta (α2Δ2) auxiliary subunit (CACNA2D2) and beta2 (02) auxiliary subunit (CACNB2). To generate the cell line, expression vectors pcDNA5.0/FRT-TO-CACNA2D2-FCS-P2A-CACNB2 and pCMV6-entry-CACNA1C were established via gene synthesis and cloning. Here, pcDNA5.0/FRT-TO plasmid is from Invitrogen, pCMV6-entry is from Origene, FCS stands for Furin Cleavage Site, P2A is a peptide self-cleavage sequence derived from porcine teschovirus-1, and FRT is the Flippase recognition target site. Next, parental line Flp-In™ 293 T-Rex (Invitrogen) was transfected with pcDNA5.0/FRT-TO-CACNA2D2-FCS-P2A-CACNB2 and Flippase vector pOG44 (Invitrogen) to establish targeted integration of the CACNA2D2-FCS-P2A-CACNB2 expression cassette into the pre-engineered FRT site in Flp-In™ 293 T-Rex. This intermediate cell line was then transfected with pCMV6-entry-CACNA1C to establish stable CACNA1C expression. Clonal isolation was achieved under Neomycin selection.
Electrophysiological Characterization of CaV1.2 Activators Using CaV1.2-HEK293(AUX) Cell Line and QPatch
(§2) 24 hours prior an electrophysiology experiment, doxycycline (1 μg/ml) was added to the growth medium (Table 6), and 25 μM of verapamil was co-applied to prevent calcium influx triggered cell death. Cell confluency should reach 70%-80% right before the experiment. To harvest cells (from a T175 cm^2 flask as an example), growth media were removed completely, and the cells were rinsed with 10 mL of D-PBS. D-PBS was aspirated, and 10 mL of Detachin (Genlantis) was added and the plate was placed in a 37° C. incubator for 10 minutes. Detached cells were placed into a 15 mL conical tube and spun at 1000 rpm for 2 minutes. Supernatant was removed, and cells were re-suspended in QPatch complete media (Table 7) to desired cell density of 1.5-3 million cells per QPatch run. Each experimental run uses 1.5 mL of cells.
(§3) The cells suspension was taken to the Sophion QPatch platform that uses whole-cell voltage clamp to measure barium currents conducted through CaV1.2 on single-hole QPlates. Extracellular and intracellular patch clamp solutions are described in Tables 7 and 8, respectively. A dose-response assay protocol was used to determine the maximal fold change of peak inward current (Emax) and potency (EC50) of each compound. The protocol had eight liquid periods. The first liquid period was to stabilize current amplitude, which was monitored using repetitive 200-ms voltage pulses stepping from −80 mV to 0 mV. The second liquid period was to determine baseline current amplitude in the presence of vehicle control, using a single 20-ms voltage pulse stepping from −80 mV to 0 mV. The third through eighth liquid periods were used to ascertain a 6-dose response to compound treatments, also using single 20-ms voltage pulses stepping from −80 mV to 0 mV. The EC50 was generated using the following equation Iconcentration=Ibase+(Ifull−Ibase)*c^n/(XC50^n+c^n), where c is the concentration and n is the Hill coefficient constant. Ifull is the maximal current achievable, and Ibase is 0. A channel biophysics assay protocol was used to determine channel gating properties including current-voltage relationship (IV curves), half-way channel activation voltage (V1/2), rate of channel inactivation (tau), and amplitude of tail current. Among these, V1/2 was derived from fitting equation G(V)=Gvmin+(Gvmax−Gvmin)/(1+exp(−(V−V½)/Vslope)), where G stands for conductance, Gvmin equals 0, Gvmax is the maximal conductance, and Vslope is a slope factor. G(V) was pre-calculated from equation G(V)=I(V)/(V−0.06), for each experimentally applied depolarization potential (V) and the corresponding current amplitude (I(V)), and 0.06 in the equation was the experimentally determined reversal potential in volts. The protocol had four liquid periods.

human CaV1.2 [3] = target: T1, human CaV1.2; experiment: QPatch channel biophysics assay (channel gating, V1/2 of activation, inactivation) in CaV1.2-HEK293(AUX) cells; type: cell-based; settings: Table 10 comparative examples
Source text: as §1, with “selection. A cell clone (2-19B) with good voltage-dependent Barium current (see electrophysiology methods below) was selected for characterization of CaV1.2 activators.” for “selection.”
as §2
as §3, with “The protocol had four liquid periods.” left out

[4] = Compound exposure in wild-type mice (brain and blood levels); type: in vivo, C57BL/6J male mice; settings: male, C57BL/6J, mouse, brain (cerebellum) / blood, intraperitoneal, Table 10 comparative examples; read-out: Brain:blood ratio
Method: Compound administration and brain tissue collection. Wild-type C57BL/6J male mice were obtained from Jackson laboratories (Bar Harbor, ME). The acute, single-dose effects of CaV1.2 activators of the present disclosure were evaluated in male eight-week old mice (n=6 mice per compound). Each compound was dissolved in 10% PEG300, 10% Solutol, 10% Cremophore EL, and 70% Phosphate Buffered Saline and administered intraperitoneal (i.p.) at a concentration of 1 mg/kg up to 30 mg/kg depending on the compound. Animals were euthanized one hour after compound administration via exsanguination under deep anesthesia. Blood was collected in EDTA tubes for downstream analysis of drug levels. Brains were rapidly removed from the skull, and the cerebral cortex and cerebellum were regionally dissected. Cerebellar samples were snap frozen in liquid nitrogen to assess compound exposure. Cortical samples for cFos assessment were placed in 500 μl of RNAlater solution (ThermoFisher) to preserve the integrity of RNA in the sample. Samples remained in RNAlater for at least 24 hours at 4° C. before moving to −80° C. for storage before processing.
Quantification of compound exposure. Cerebellar tissue samples were homogenized in 4 ml of 20% acetonitrile and 80% Phosphate buffered saline for every 1 g of tissue (5× dilution). Tissue was homogenized using either of the following three methods: hand held probe system, TissueLyser system with 5 mm steel bead at a frequency of 30 s^−1 for 4 min, or OMNI Bead Ruptor Elite homogenizer for 30 seconds to 1 minute depending on tissue type. Tissue samples were added to a 96-well plate (12.5 uL sample) and processed for quantification by mass spectrometry.

In the case of `COC(=O)C1=C(CF)NC2=C(C(=O)OC2)[C@H]1c1cccc(F)c1[C@@H](C)F` [Hydrate A, methyl (R)-4-(3-fluoro-2-((R)-1-fluoroethyl)phenyl)-2-(fluoromethyl)-5-oxo-1,4,5,7-tetrahydrofuro[3,4-b]pyridine-3-carboxylate], the hygroscopicity [1] is reported as “slightly hygroscopic” and the water uptake ([1]; between 10% to 95% RH at 25° C.) is reported as “about 0.2%”.
In the case of `COC(=O)C1=C(CF)NC2=C(C(=O)OC2)[C@H]1c1cccc(F)c1[C@@H](C)F` [Hydrate B, methyl (R)-4-(3-fluoro-2-((R)-1-fluoroethyl)phenyl)-2-(fluoromethyl)-5-oxo-1,4,5,7-tetrahydrofuro[3,4-b]pyridine-3-carboxylate], the “water uptake upon subsequent increase of the relative humidity” value ([1]; 25° C.) is reported as “about 3%” and the “loss of water on dehydration” value ([1]; starts below 20% RH, until 0% RH) is reported as “about 4.4%”.
In the case of `CCOC(=O)C1=C(C)NC2=C(C(=O)OC2)[C@H]1c1ccccc1OC(F)F` (single isomer, unassigned) [CGP028392, reference compound], the “Qpatch Emax” value (human CaV1.2 [2]) is reported as 2.2, the “Biophysics voltage shift (mV)” value (human CaV1.2 [3]) is reported as −6.7 mV and the Kp at 1 h [4] is reported as 0.23.
